Laboratory results reported in patent US20240239790A1, “7-Morpholino-1,6-Naphthyridin-5-yl Derivatives and Pharmaceutical Compositions Thereof Useful as DNA-PK Inhibitor” (adMare Therapeutics Society, priority 2021, published 2024).
Where two headings read alike, the source gives them in different places.

Experiments:
[1] = tested on: pH2AX induction in HCT116 ATM-/- multicellular tumour spheroids; experiment: Prodrug Radiation Sensitization in Multicellular Tumour Spheroids, inhibition of pH2AX induction following radiation; type: cell-based; settings: Homo sapiens, HCT-116, 20 Gy
Experimental: Prodrug compounds were assayed to determine their potency in 3D multicellular spheroids in media maintained under 20% vs 5% oxygen. Multicellular tumour spheroids were grown to approximately 0.5 mm in diameter and irradiated with 20 Gy in combination with inhibitor test compounds to determine their potency using HCT 116 and FaDu cell lines. Experiments were carried out in 96 well plates containing 0.7 mls of MEM media containing 10% FBS and 10 mM glucose under 5% CO2 at 37° C. Following dilution of compounds 1:1000 from DMSO stocks, compounds were serially diluted from 10 μM down to 3.5 nM and 5-10 spheroids added. 96 well plates were constantly stirred to avoid spheroids settling during the course of the experiment. Endpoints were pDNA-PK (ser 2056) or pH2AX (ser 139) status in spheroid cryosections taken 1 or 2 hours following radiation and fixed immediately in formalin. Using tumour cell lines deficient in ATM improved the assay signal to noise and gH2AX readout. Using this assay prodrug activity could be compared in the more oxygenated outer spheroid layers versus less oxygenated hypoxic central cell layers.

FaDu cell line = experiment: Prodrug Activation in Hypoxic Stirred Tumour Cell Suspensions; settings: 10 μM, 4 hours
[2] = molecular target: T1, DNA-PK phosphorylation at Serine 2056 (Homo sapiens, UniProt P78527); experiment: Cellular Assay for Inhibition of DNA-PK Phosphorylation at Serine 2056 in FaDu cells (sandwich ELISA, neocarzinostatin); type: cell-based; settings: pSer2056 DNA-PK, Table 3
T1 construct: FaDu cells were purchased from ATCC; host or cells: FaDu
Experimental: FaDu cells were purchased from ATCC and maintained in MEM alpha medium (Life Technologies, cat. no. 12561) supplemented with 10% fetal bovine serum, and 1% GlutaMAX at 37° C. supplemented with 5% CO2. 50,000 cells were seeded to each well of a 96-well cell culture plate in 50 μL of culture medium and incubated for 16-24 hours. Three-fold serially diluted compounds were prepared in DMSO. Culture media was used to prepare compound treatments to 0.3% DMSO (dimethyl sulphoxide) content. Compound treatments were added to the cells for 1 hour prior incubation, followed by the addition of neocarzinostatin in fresh culture medium to 1 μg/mL final concentration for an additional 2 hours incubation to induce DNA DSBs (double-strand breaks). DMSO controls were incubated with fresh culture medium alone for the additional two hours incubation. The cells were then lysed and frozen at −20° C. Cell lysates were thawed on wet ice and protein concentrations quantified by BCA Protein Assay (Thermo #23225). Lysis buffer was used to normalize lysates by protein content and all lysates were then investigated by sandwich ELISA by means of DNA-PK-specific antibodies (Abcam ab44815: total DNA-PK; ab124918: phosphoserine-2056 DNA-PK) in sandwich ELISA format on the MSD S600MM platform (MesoScale Discovery). % inhibition was calculated for all data points: =1−(DATA_PT−AVERAGE(DMSO controls))/(AVERAGE(NCS controls)−AVERAGE(DMSO controls)). Logarithm of the molar concentration of compound was plotted against percent inhibition to calculate IC50 values, with curve fit settings for data fit to log(inhibitor) vs. normalized response—Variable slope using curve fit software (GraphPad Prism).

[3] = 5% O2, inner layers, read-out: Prodrug 5% O2 Inner layers EC50
[4] = 5% O2, outer layers, read-out: Prodrug 5% O2 Outer layers EC50
[5] = 20% O2, outer layers, read-out: Prodrug 20% O2 Outer layers EC50

Compound | IC50 [2] [nM] | further results
Cn1c(Cn2nnc(-c3cnc4cc(N5CCOCC5)nc(O[C@H]5CC[C@@H](Nc6ncccn6)CC5)c4c3)n2)cnc1[N+](=O)[O-] [LFA121, N-[4-[[3-[2-[(3-Methyl-2-nitro-imidazol-4-yl)methyl]tetrazol-5-yl]-7-morpholino-1,6-naphthyridin-5-yl]oxy]cyclohexyl]pyrimidin-2-amine] | – | EC50 [1, 3]: 500 to 1000 nM; EC50 [1, 4]: 1000 to 10000 nM; EC50 [1, 5]: 1000 to 10000 nM; Fraction of prodrug converted to active form, Hypoxic 0.2% O2 (FaDu cell line): A (A is 0.15 to 1); Fraction of prodrug converted to active form, Oxic 5% O2 (FaDu cell line): B (B is 0.05 to 0.15)
Cn1c(Cn2nnc(-c3cnc4cc(N5CCOCC5)nc(O[C@H]5CC[C@@H](n6ccnc6)CC5)c4c3)n2)cnc1[N+](=O)[O-] [LFA123, 4-[5-(4-imidazol-1-ylcyclohexoxy)-3-[2-[(3-methyl-2-nitro-imidazol-4-yl)methyl]tetrazol-5-yl]-1,6-naphthyridin-7-yl]morpholine] | – | EC50 [1, 3]: 1000 to 10000 nM; EC50 [1, 4]: 1000 to 10000 nM; EC50 [1, 5]: 1000 to 10000 nM; Fraction of prodrug converted to active form, Hypoxic 0.2% O2 (FaDu cell line): A (A is 0.15 to 1); Fraction of prodrug converted to active form, Oxic 5% O2 (FaDu cell line): B (B is 0.05 to 0.15)
CN1CCN(CCOc2ccnc(N[C@H]3CC[C@@H](Oc4nc(N5CCOCC5)cc5ncc(NS(C)(=O)=O)cc45)CC3)n2)CC1 [LFA2026, N-[5-[4-[[4-[2-(4-methylpiperazin-1-yl)ethoxy]pyrimidin-2-yl]amino]cyclohexoxy]-7-morpholino-1,6-naphthyridin-3-yl]methanesulfonamide] | 100 to 1000 | –
CS(=O)(=O)Nc1cnc2cc(N3CCOCC3)nc(O[C@H]3CC[C@@H](Nc4ncc(OCCN)cn4)CC3)c2c1 [LFA2027, N-[5-[4-[[5-(2-aminoethoxy)pyrimidin-2-yl]amino]cyclohexoxy]-7-morpholino-1,6-naphthyridin-3-yl]methanesulfonamide] | < 100 | –
CS(=O)(=O)Nc1cnc2cc(N3CCOCC3)nc(O[C@H]3CC[C@@H](Nc4ncc(OCCO)cn4)CC3)c2c1 [LFA2028, N-[5-[4-[[5-(2-hydroxyethoxy)pyrimidin-2-yl]amino]cyclohexoxy]-7-morpholino-1,6-naphthyridin-3-yl]methanesulfonamide] | < 100 | –
CS(=O)(=O)Nc1cnc2cc(N3CCOCC3)nc(O[C@H]3CC[C@@H](Nc4ncc(N5CCOCC5)cn4)CC3)c2c1 [LFA2029, N-[7-morpholino-5-[4-[(5-morpholinopyrimidin-2-yl)amino]cyclohexoxy]-1,6-naphthyridin-3-yl]methanesulfonamide] | < 100 | –
CS(=O)(=O)Nc1cnc2cc(N3CCOCC3)nc(O[C@H]3CC[C@@H](Nc4ncc(CCN5CCOCC5)cn4)CC3)c2c1 [LFA2030, N-[7-morpholino-5-[4-[[5-(2-morpholinoethyl)pyrimidin-2-yl]amino]cyclohexoxy]-1,6-naphthyridin-3-yl]methanesulfonamide] | < 100 | –
CN1CCN(CCc2cnc(N[C@H]3CC[C@@H](Oc4nc(N5CCOCC5)cc5ncc(NS(C)(=O)=O)cc45)CC3)nc2)CC1 [LFA2031, N-[5-[4-[[5-[2-(4-methylpiperazin-1-yl)ethyl]pyrimidin-2-yl]amino]cyclohexoxy]-7-morpholino-1,6-naphthyridin-3-yl]methanesulfonamide] | < 100 | –
CN1CCN(c2cnc(N[C@H]3CC[C@@H](Oc4nc(N5CCOCC5)cc5ncc(NS(C)(=O)=O)cc45)CC3)nc2)CC1 [LFA2032, N-[5-[4-[[5-(4-methylpiperazin-1-yl)pyrimidin-2-yl]amino]cyclohexoxy]-7-morpholino-1,6-naphthyridin-3-yl]methanesulfonamide] | < 100 | –
CN1CCC(Oc2cnc(N[C@H]3CC[C@@H](Oc4nc(N5CCOCC5)cc5ncc(O)cc45)CC3)nc2)C1 (stereo partly drawn) [LFA2033, 5-[4-[[5-(1-methylpyrrolidin-3-yl)oxypyrimidin-2-yl]amino]cyclohexoxy]-7-morpholino-1,6-naphthyridin-3-ol] | < 100 | –
CN1CCN(CCOc2cnc(N[C@H]3CC[C@@H](Oc4nc(N5CCOCC5)cc5ncc(O)cc45)CC3)nc2)CC1 [LFA2034, 5-[4-[[5-[2-(4-methylpiperazin-1-yl)ethoxy]pyrimidin-2-yl]amino]cyclohexoxy]-7-morpholino-1,6-naphthyridin-3-ol] | < 100 | –
Oc1cnc2cc(N3CCOCC3)nc(O[C@H]3CC[C@@H](Nc4ncc(OCCN5CCOCC5)cn4)CC3)c2c1 [LFA2035, 7-morpholino-5-[4-[[5-(2-morpholinoethoxy)pyrimidin-2-yl]amino]cyclohexoxy]-1,6-naphthyridin-3-ol] | < 100 | –
CN1CC[C@H](Oc2cnc(N[C@H]3CC[C@@H](Oc4nc(N5CCOCC5)cc5ncc(NS(C)(=O)=O)cc45)CC3)nc2)C1 [LFA2036, N-[5-[4-[[5-[(3S)-1-methylpyrrolidin-3-yl]oxypyrimidin-2-yl]amino]cyclohexoxy]-7-morpholino-1,6-naphthyridin-3-yl] methanesulfonamide] | < 100 | –
CN1CC[C@@H](Oc2cnc(N[C@H]3CC[C@@H](Oc4nc(N5CCOCC5)cc5ncc(NS(C)(=O)=O)cc45)CC3)nc2)C1 [LFA2037, N-[5-[4-[[5-[(3R)-1-methylpyrrolidin-3-yl]oxypyrimidin-2-yl]amino]cyclohexoxy]-7-morpholino-1,6-naphthyridin-3-yl] methanesulfonamide] | < 100 | –
Cc1nc(N[C@H]2CC[C@@H](Oc3nc(N4CCOCC4)cc4ncc(NS(C)(=O)=O)cc34)CC2)ncc1N1CCN(C)CC1 [LFA2038, N-[5-[4-[[4-methyl-5-(4-methylpiperazin-1-yl)pyrimidin-2-yl]amino]cyclohexoxy]-7-morpholino-1,6-naphthyridin-3-yl]methanesulfonamide] | < 100 | –
Cc1nc(N[C@H]2CC[C@@H](Oc3nc(N4CCOCC4)cc4ncc(NS(C)(=O)=O)cc34)CC2)ncc1OCCN1CCN(C)CC1 [LFA2039, N-[5-[4-[[4-methyl-5-[2-(4-methylpiperazin-1-yl)ethoxy]pyrimidin-2-yl]amino]cyclohexoxy]-7-morpholino-1,6-naphthyridin-3-yl]methanesulfonamide] | < 100 | –
Cc1nc(N[C@H]2CC[C@@H](Oc3nc(N4CCOCC4)cc4ncc(NS(C)(=O)=O)cc34)CC2)ncc1OCCN1CCOCC1 [LFA2040, N-[5-[4-[[4-methyl-5-(2-morpholinoethoxy)pyrimidin-2-yl]amino]cyclohexoxy]-7-morpholino-1,6-naphthyridin-3-yl]methanesulfonamide] | < 100 | –
CN1CCc2nc(N[C@H]3CC[C@@H](Oc4nc(N5CCOCC5)cc5ncc(O)cc45)CC3)ncc2C1 [LFA2078, 5-[4-[(6-methyl-7,8-dihydro-5H-pyrido[4,3-d]pyrimidin-2-yl)amino]cyclohexoxy]-7-morpholino-1,6-naphthyridin-3-ol] | < 100 | –
CN(C)CCOc1cnc(N[C@H]2CC[C@@H](Oc3nc(N4CCOCC4)cc4ncc(O)cc34)CC2)nc1 [LFA2079, 5-[4-[[5-[2-(dimethylamino)ethoxy]pyrimidin-2-yl]amino]cyclohexoxy]-7-morpholino-1,6-naphthyridin-3-ol] | < 100 | –
CN1CCN(c2cnc(N[C@H]3CC[C@@H](Oc4nc(N5CCOCC5)cc5ncc(O)cc45)CC3)nc2)CC1 [LFA2080, 5-[4-[[5-(4-methylpiperazin-1-yl)pyrimidin-2-yl]amino]cyclohexoxy]-7-morpholino-1,6-naphthyridin-3-ol] | < 100 | –
Cn1c(COc2cnc3cc(N4CCOCC4)nc(O[C@H]4CC[C@@H](Nc5nccnc5C#N)CC4)c3c2)cnc1[N+](=O)[O-] [LFA2095, 3-[[4-[[3-[(3-methyl-2-nitro-imidazol-4-yl)methoxy]-7-morpholino-1,6-naphthyridin-5-yl]oxy]cyclohexyl]amino]pyrazine-2-carbonitrile] | 10000 to 30000 | –
CC(Oc1cnc2cc(N3CCOCC3)nc(O[C@H]3CC[C@@H](Nc4cncc(C(F)(F)F)n4)CC3)c2c1)c1cnc([N+](=O)[O-])n1C (stereo partly drawn) [LFA2096, N-[4-[[3-[1-(3-methyl-2-nitro-imidazol-4-yl)ethoxy]-7-morpholino-1,6-naphthyridin-5-yl]oxy]cyclohexyl]-6-(trifluoromethyl)pyrazin-2-amine] | 10000 to 30000 | –
